According to article PMC2962730 (Journal of neurochemistry, 2010):
Changes are numbered by the printed parent chain.

Key:
hVAChT Y60H [1] = molecular target: T1, hVAChT Y60H (Homo sapiens, UniProt Q16572, Y60H); assay: ACh equilibrium binding by competition against [3H]vesamicol
T1 sequence (Q16572 1-532 Y60H): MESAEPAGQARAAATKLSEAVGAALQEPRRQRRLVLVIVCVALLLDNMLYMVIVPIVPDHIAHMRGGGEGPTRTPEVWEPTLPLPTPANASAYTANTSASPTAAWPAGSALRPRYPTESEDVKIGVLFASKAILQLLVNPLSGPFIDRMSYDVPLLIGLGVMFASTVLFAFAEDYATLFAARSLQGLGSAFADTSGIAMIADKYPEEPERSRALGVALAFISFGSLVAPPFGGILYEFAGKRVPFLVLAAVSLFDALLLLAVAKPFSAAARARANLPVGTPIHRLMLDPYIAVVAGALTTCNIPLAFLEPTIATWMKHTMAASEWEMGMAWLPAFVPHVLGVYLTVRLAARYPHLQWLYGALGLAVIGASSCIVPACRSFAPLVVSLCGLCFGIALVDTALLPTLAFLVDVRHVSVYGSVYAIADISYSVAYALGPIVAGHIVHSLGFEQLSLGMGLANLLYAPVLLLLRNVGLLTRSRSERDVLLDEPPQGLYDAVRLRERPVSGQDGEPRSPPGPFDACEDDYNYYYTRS

hVAChT Y60H [2] = molecular target: T1, hVAChT Y60H; assay: [3H]ACh transport; type: biochemical
hVAChT W325H [3] = molecular target: T2, hVAChT W325H (Homo sapiens, UniProt Q16572, W325H); assay: [3H]ACh transport; type: biochemical
T2 sequence (Q16572 1-532 W325H): T1 sequence (Q16572 1-532 Y60H) with H60Y, W325H

hVAChT A330V = molecular target: T3, hVAChT A330V (Homo sapiens, UniProt Q16572, A330V); assay: ACh equilibrium binding by competition against [3H]vesamicol
T3 sequence (Q16572 1-532 A330V): T1 sequence (Q16572 1-532 Y60H) with H60Y, A330V

hVAChT W331A = molecular target: T4, hVAChT W331A (Homo sapiens, UniProt Q16572, W331A); assay: as above
T4 sequence (Q16572 1-532 W331A): T1 sequence (Q16572 1-532 Y60H) with H60Y, W331A

hVAChT W325H [4] = molecular target: T2, hVAChT W325H; assay: [3H]vesamicol saturation binding; settings: pH 7.4
[5] = read-out: KM, Michaelis-Menten constant for ACh transport, pH 7.4

Row | SMILES | Kd (hVAChT Y60H [1]) [mM] | FHA, fraction of the ACh sites that have high affinity (hVAChT Y60H [1]; Y60H hVAChT, pH 7.4) | Vmax/Bmax, ACh transport normalized to Bmax (hVAChT Y60H [2]; pH 7.4) [min⁻¹] | Km (hVAChT Y60H [2]; [5]) [µM] | Vmax/Bmax, ACh transport normalized to Bmax (hVAChT W325H [3]; pH 7.4) [min⁻¹] | Km (hVAChT W325H [3]; [5]) [µM] | Kd (hVAChT A330V) [mM] | decrease in the fraction of high-affinity binding by ACh (hVAChT A330V; A330V hVAChT vs wild-type) [fold] | FHA, fraction of the ACh sites that have high affinity (hVAChT A330V; A330V hVAChT, pH 7.4) | ACh bound more weakly than by wild-type (hVAChT W331A; W331A hVAChT vs wild-type) [fold] | FHA, fraction of the ACh sites that have high affinity (hVAChT W331A; W331A hVAChT, pH 7.4, monophasic fit, FHA fixed to 1) | Bmax, maximal specific [3H]vesamicol binding (VAChT expression level) (hVAChT W325H [4]) [pmol/mg]
1 | CC(=O)OCC[N+](C)(C)C [ACh, acetylcholine] | 11 | 0.82 ± 0.04 | 3.1 ± 0.6 | 720 ± 530 | 6.5 ± 1.1 | 480 ± 170 | 12 ± 5 | 2 | 0.44 ± 0.11 | 11 | 1.0 | 
2 | O[C@@H]1CCCC[C@H]1N1CCC(c2ccccc2)CC1 (racemic) [vesamicol, ( )-trans-2-(4-phenylpiperidino)cyclohexanol] |  |  |  |  |  |  |  |  |  |  |  | 22 ± 1
